Source: patent US12161666B2, “Composition comprising cinnamaldehyde and zinc to improve swallowing” (SOCIÉTÉ DES PRODUITS NESTLÉ S.A., priority 2014, dated 2024)

How the values were obtained:
[1] = oral administration; cited from earlier work
[2] = molecular target: T1, hTRPA1 expressed in CHO cells (Homo sapiens, UniProt O75762); assay: in vitro activity of hTRPA1 expressed in CHO cells, intracellular calcium measured with a fluorescent dye; assay type: cell-based; parameters: efficacy on hTRPA1 according to dose-response curve: dose or concentration left out as unconfirmed
T1 construct: expressed in transfected cells; host or cells: CHO cells
Experimental: The in vitro activity of hTRPA1 expressed in CHO cells was measured for 10 μM cinnamaldehyde and 0.3 μM zinc individually, as well as the combination.

[3] = molecular target: TRPA1 (Homo sapiens, UniProt O75762); settings: read-out: EC50 of TRPA1 activation; cited from earlier work
[4] = molecular target: TRPM8 (Homo sapiens, UniProt Q7Z2W7); settings: cited from earlier work
[5] = molecular target: TRPV1 (Homo sapiens, UniProt Q8NER1); settings: cited from earlier work
TRPV1, sequence (Q8NER1 whole entry, species assumed): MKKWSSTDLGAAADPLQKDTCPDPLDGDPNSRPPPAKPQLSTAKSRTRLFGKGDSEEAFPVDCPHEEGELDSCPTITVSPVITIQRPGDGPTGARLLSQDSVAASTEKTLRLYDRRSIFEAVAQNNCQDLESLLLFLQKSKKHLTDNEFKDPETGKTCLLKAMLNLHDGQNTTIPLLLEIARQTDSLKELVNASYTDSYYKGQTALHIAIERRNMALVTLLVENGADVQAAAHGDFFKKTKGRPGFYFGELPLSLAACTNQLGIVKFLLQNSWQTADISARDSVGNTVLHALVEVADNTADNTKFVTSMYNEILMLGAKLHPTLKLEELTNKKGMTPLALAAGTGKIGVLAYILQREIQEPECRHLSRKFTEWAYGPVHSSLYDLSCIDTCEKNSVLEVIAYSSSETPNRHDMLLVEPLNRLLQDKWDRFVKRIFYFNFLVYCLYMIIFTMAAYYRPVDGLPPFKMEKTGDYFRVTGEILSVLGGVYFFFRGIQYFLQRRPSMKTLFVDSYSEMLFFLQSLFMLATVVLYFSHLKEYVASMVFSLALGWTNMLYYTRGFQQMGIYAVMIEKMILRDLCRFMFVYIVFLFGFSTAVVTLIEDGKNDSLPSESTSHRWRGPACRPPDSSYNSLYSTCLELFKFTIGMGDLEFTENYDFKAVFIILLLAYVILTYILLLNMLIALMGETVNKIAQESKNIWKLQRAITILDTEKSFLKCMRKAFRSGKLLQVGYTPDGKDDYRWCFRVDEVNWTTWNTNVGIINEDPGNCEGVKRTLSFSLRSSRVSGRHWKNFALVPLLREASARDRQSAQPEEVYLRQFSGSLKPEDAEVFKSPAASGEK

T1 sequence (O75762 whole entry): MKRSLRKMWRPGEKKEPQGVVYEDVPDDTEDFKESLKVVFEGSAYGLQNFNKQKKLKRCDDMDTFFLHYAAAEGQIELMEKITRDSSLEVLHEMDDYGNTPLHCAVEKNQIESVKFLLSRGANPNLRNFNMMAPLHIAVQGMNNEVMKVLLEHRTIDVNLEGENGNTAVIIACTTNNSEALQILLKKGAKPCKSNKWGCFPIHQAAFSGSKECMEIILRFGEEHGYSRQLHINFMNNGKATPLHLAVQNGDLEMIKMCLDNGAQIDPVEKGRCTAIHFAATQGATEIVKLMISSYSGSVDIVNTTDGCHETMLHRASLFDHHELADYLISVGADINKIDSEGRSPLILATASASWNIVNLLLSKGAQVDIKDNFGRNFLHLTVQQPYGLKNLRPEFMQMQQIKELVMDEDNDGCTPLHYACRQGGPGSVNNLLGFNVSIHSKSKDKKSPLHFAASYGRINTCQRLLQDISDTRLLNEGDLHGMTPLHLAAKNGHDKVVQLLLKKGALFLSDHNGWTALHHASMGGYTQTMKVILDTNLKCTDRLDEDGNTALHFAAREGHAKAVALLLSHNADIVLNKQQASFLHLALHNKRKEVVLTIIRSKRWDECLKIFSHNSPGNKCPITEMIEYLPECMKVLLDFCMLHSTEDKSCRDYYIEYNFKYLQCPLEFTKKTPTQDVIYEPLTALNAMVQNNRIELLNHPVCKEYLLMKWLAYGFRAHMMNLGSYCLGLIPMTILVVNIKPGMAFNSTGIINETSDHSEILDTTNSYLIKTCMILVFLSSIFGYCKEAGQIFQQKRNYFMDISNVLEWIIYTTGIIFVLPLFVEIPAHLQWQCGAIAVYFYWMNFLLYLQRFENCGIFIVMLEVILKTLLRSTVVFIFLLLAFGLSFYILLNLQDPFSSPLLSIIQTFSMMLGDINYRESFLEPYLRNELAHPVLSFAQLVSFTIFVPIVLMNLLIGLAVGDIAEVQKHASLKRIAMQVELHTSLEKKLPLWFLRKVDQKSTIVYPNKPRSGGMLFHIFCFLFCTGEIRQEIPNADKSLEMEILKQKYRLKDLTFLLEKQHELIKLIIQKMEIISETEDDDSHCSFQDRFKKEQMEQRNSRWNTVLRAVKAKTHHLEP
TRPM8, sequence (Q7Z2W7 whole entry, species assumed): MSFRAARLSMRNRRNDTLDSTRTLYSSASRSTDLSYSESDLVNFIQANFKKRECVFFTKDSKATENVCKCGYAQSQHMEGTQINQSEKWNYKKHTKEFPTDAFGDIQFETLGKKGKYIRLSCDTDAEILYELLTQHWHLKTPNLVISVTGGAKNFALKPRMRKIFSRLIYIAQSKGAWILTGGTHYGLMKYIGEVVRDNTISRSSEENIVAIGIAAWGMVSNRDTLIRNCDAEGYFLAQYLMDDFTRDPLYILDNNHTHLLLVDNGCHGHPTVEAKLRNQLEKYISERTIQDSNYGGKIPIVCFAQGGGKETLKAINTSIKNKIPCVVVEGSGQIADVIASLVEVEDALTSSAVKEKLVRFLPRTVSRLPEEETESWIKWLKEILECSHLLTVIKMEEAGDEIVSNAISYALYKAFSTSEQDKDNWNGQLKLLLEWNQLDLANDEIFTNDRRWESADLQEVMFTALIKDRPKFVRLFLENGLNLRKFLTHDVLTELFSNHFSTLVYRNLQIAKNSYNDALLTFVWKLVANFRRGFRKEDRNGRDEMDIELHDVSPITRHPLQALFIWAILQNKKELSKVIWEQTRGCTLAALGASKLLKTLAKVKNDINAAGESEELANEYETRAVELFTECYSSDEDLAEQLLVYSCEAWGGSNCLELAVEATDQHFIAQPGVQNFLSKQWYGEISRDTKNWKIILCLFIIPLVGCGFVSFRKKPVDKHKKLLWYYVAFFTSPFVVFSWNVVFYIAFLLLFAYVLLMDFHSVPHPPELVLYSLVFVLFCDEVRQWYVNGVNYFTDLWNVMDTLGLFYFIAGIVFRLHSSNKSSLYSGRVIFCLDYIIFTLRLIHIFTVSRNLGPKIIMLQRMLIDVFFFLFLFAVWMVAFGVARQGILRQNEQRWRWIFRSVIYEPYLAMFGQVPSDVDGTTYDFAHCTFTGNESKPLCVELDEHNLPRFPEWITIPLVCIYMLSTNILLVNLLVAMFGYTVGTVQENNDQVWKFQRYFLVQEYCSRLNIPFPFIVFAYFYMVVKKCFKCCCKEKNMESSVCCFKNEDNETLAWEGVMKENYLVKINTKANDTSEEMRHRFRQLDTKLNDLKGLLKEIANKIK
TRPA1, sequence (O75762 whole entry, species assumed): as the sequence (O75762 whole entry) above

COc1cc(CNC(=O)CCCC/C=C/C(C)C)ccc1O [capsaicin]
promotion of swallow reflex [1]: shown to promote a swallow reflex

O=CC=Cc1ccccc1 [cinnamaldehyde]
efficacy on hTRPA1 according to dose-response curve ([2]; positive control C+, CHO cells): maximum efficacy
EC50 [3]: ~10 µM
activation of TRPM8 [4]: not TRPV1 or TRPM8
activation of TRPV1 [5]: not TRPV1

zinc
concentration of zinc required for the synergy with cinnamaldehyde on TRPA1 ([2]; in vitro): < 1 µM
